This note sets out measurements from patent US10336732B2, “1-heterocyclyl isochromanyl compounds and analogs for treating CNS disorders” (Sunovion Pharmaceuticals Inc., priority 2015, dated 2019).

In this experiment the test system is α1 (non-selective). Briefly: In vitro radioligand binding assay, α1 (non-selective), [3H]prazosin. On the set-up: concentration or dose not given beside the values. The settings on record: rat cerebral cortex membranes. The method, then: Certain compounds were tested by in vitro binding assays using standard procedures. […] These receptors and assays are well known to those skilled in the art, as exemplified by the following: Abramovitz, M. et al. (2000), Biochem. Biophys. Acta., 1483: 285-293 (EP4, IP (PGI2)); Aharony, D. et al. (1993), Mol. Pharmacol., 44: 356-363 (NK2); Ardati, A. et al. (1997), Mol. Pharmacol., 51: 816-824 (NOP (ORL1)); Bignon, E. et al. (1999), J. Pharmacol. Exp. Ther. 289: 742-751 (CCK1 (CCKA)); Bloomquist, B. T. et al. (1998), Biochem. Biophys. Res. Commun., 243: 474-479 (GAL2); Brockhaus, M. et al. (1990), Proc. Natl. Acad. Sci. U.S.A., 87: 3127-3131 (TNF-α); Brown, G. B. (1986), J. Neurosci., 6: 2064-2070 (Na+ channel (site 2)); Buchan, K. W. et al. (1994), Brit. J. Pharmacol., 112: 1251-1257 (ETA); Cesura, A. M. et al. (1990), Mol. Pharmacol., 37: 358-366 (MAO-A); Choi, D. S. et al. (1994), FEBS Lett., 352: 393-399 (5-HT2B); Clark, A. F. et al. (1996), Invest. Ophtalmol. Vis. Sci., 37: 805-813 (GR); Couvineau, A. et al. (1985), Biochem. J., 231: 139-143 (VPAC1 (VIP1)); Dorje, F. et al. (1991), J. Pharmacol. Exp. Ther., 256: 727-733 (M1, M2, M3, M4); Ferry, G. et al. (2001), Eur. J. Pharmacol., 417: 77-89 (PPARγ); Fuchs, S. et al. (2001), Mol. Med., 7: 115-124 (ETB); Fuhlendorff, J. et al. (1990), Proc. Natl. Acad. Sci. U.S.A., 87: 182-186 (Y2); Ganapathy M E. et al. (1999), J. Pharmacol. Exp. Ther., 289: 251-260 (sigma (non-selective)); Gopalakrishnan, M. et al. (1996), J. Pharmacol. Exp. Ther., 276: 289-297 (N neuronal α4β2); Greengrass, P. and Bremner, R. (1979), Eur. J. Pharmacol., 55: 323-326 (α1 (non-selective)); Grandy, D. K. et al. (1989), Proc. Natl. Acad. Sci. U.S.A., 86: 9762-9766 (D25); Guard, S. et al. (1993), Eur. J. Pharmacol., 240:177-184 (BB (non-selective)); Heuillet, E. et al. (1993), J. Neurochem., 60: 868-876 (NK1, P2X); Hope, A. G. et al. (1996), Brit. J. Pharmacol., 118: 1237-1245 (5-HT3); Hoyer, D. et al. (1985), Eur. J. Pharmacol., 118: 1-12 (5-HT1B); Hugues, M. et al. (1982), J. Biol. Chem., 257: 2762-2769 (5-HT2A, SKCa channel); Joseph, S. S. et al. (2004), Naun.-Sch. Arch. Pharm., 369: 525-532 (β2); Le, M. T. et al. (2005), Eur. J. Pharmacol., 513: 35-45 (AT1); Le Fur, G. et al. (1983), Life Sci., 33: 449-457) (BZD (peripheral); Lee, Y. M. et al. (1993), J. Biol. Chem., 268: 8164-8169 (CCK2 (CCKB)); Leurs, R. et al. (1994), Brit. J. Pharmacol., 112: 847-854 (H2); Levin, M. C. et al. (2002), J. Biol. Chem., 277: 30429-30435 (11); Lewin, A. H. et al. (1989), Mol. Pharmacol., 35: 189-194 (Cl− channel (GABA-gated)); Lukas, R. J. (1986), J. Neurochem., 46: 1936-1941 (N muscle-type); Luthin, D. R. et al. (1995), Mol. Pharmacol., 47: 307-313; (A2A); Mackenzie, R. G. et al. (1994), Eur. J. Pharmacol., 266: 79-85 (D3); Mulheron, J. G. et al. (1994), J. Biol. Chem., 269: 12954-12962 (5-HT1A); Meng, F. et al. (1993), Proc. Natl. Acad. Sci. U.S.A., 90: 9954-9958 (κ (KOP)); Monsma, F. J. et al. (1993), Mol. Pharmacol., 43: 320-327 (5-HT6); Neote, K. et al. (1993), Cell, 72: 415-425 (CCR1); Pacholczyk, T. et al. (1991), Nature, 350: 350-354 (sst (non-selective, norepinephrine transporter)); Peralta, E. G. et al. (1987), Embo. J., 6: 3923-3929 (M3); Pristupa, Z. B. et al. (1994), Mol. Pharmacol., 45: 125-135 (dopamine transporter); Pruneau, D. et al. (1998), Brit. J. Pharmacol., 125: 365-372 (B2); Rees, S. et al. (1994), FEBS Lett., 355: 242-246 (5-HT5a); Reynolds, I. J. et al. (1986), J. Pharmacol. Exp. Ther., 237: 731-738 (Ca2+ channel (L, verapamil site)); Rinaldi-Carmona, M. et al. (1996), J. Pharmacol. Exp. Ther., 278: 871-878 (CB1); Salvatore, C. A. et al. (1993), Proc. Natl. Acad. Sci. U.S.A., 90: 10365-10369 (A3); Sarau, H. M. et al. (1997), J. Pharmacol. Exp. Ther., 281: 1303-1311 (NK3); Schioth, H. B. et al. (1997), Neuropeptides, 31: 565-571 (MC4); Sharples, C. […]

As for `Fc1cccc2c1[C@H]([C@@H]1CCCN1)OCC2` [Compound I-1, (S)-2-((R)-8-fluoroisochroman-1-yl)pyrrolidine], the “α1 percent inhibition of specific binding” value (“α1 percent inhibition” below) is recorded as 55%. To `Fc1ccc2c(c1)[C@H]([C@@H]1CCCN1)OCC2` [Compound I-5, (2S)-2-((R)-7-fluoroisochroman-1-yl)pyrrolidine] belongs 59%.

With `Fc1ccc2c(c1)CCO[C@H]2[C@@H]1CCCN1` [Compound I-9, (S)-2-((R)-6-fluoroisochroman-1-yl)pyrrolidine], the “α1 percent inhibition” value came out at 73%. Regarding `Clc1ccc2c(c1)[C@H]([C@@H]1CCCN1)OCC2` [Compound I-29, (S)-2-((R)-7-chloroisochroman-1-yl)pyrrolidine], the “α1 percent inhibition” value was found to be 69%. Next, `Fc1ccc2c(c1)CCO[C@H]2[C@@H]1CCN1` [Compound I-90, (S)-2-((R)-6-fluoroisochroman-1-yl)azetidine]: 64%. As for `Fc1cccc2c1CCO[C@@H]2[C@@H]1CCN1` [Compound I-94, (S)-2-((S)-5-fluoroisochroman-1-yl)azetidine], the “α1 percent inhibition” value is listed as 72%.

Regarding `Fc1cccc2c1CCO[C@@H]2[C@H]1CCN1` [Compound I-96, (R)-2-((S)-5-fluoroisochroman-1-yl)azetidine], the “α1 percent inhibition” value is listed as 81%.
